According to patent publication US12692262B2, “Substituted ureas as orexin receptor agonists” (Merck Sharp & Dohme LLC, priority 2020, dated 2026):

Target: T1, human OX2R (Homo sapiens, UniProt O43614)
T1 construct: expressed in transfected cells; host or cells: CHO (Chinese hamster ovary) cells grown under G418 selection
T1 sequence (O43614 1-444): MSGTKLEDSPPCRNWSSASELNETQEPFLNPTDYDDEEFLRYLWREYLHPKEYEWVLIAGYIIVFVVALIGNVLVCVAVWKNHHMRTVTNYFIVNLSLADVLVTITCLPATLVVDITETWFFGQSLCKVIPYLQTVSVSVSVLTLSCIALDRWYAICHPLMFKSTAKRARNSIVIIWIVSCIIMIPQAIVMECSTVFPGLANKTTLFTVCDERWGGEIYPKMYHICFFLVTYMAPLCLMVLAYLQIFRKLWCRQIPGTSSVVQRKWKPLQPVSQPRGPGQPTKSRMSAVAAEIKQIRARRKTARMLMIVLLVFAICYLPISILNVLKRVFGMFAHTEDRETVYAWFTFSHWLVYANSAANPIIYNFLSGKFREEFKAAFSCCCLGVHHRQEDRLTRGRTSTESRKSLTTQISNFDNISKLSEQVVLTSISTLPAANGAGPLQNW
Test: IPOne (IP-1 accumulation) assay in CHO cells expressing human OX2R
Assay type: cell-based
Settings: for EC50: CHO cells expressing human OX2R, IP-One assay, 2 h incubation, four parameter logistic fit, read-out: OX2R Potency, EC50; for % of maximum agonist effect (relative to Orexin A): percent effect vs mean max effect of a reference compound at 1 uM (100% activity vs Orexin A), human OX2R
Outline: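 CHO cells stably expressing human OX2R, grown in Iscove's modified DMEM with 10% FBS; agonist-driven IP-1 accumulation via the Gαq pathway measured by HTRF (D2/AB-cryptate detection after lysis). EC50 taken as the inflection point of a four-parameter logistic fit.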

Structure (SMILES)	EC50 [nM]	% of maximum agonist effect (relative to Orexin A) [%]	% of maximum agonist effect (relative to Orexin A) (1 µM) [%]
CCN(C(=O)N[C@@H](CCC(F)(F)F)C(F)(F)F)C(C)c1ccnc(-c2cn3ccnc3c(OC)n2)n1 (stereo partly drawn) [Example 2-63, 1-ethyl-3-((S)-1,1,1,5,5,5-hexafluoropentan-2-yl)-1-(1-(2-(8-methoxyimidazo[1,2-a]pyrazin-6-yl)pyrimidin-4-yl)ethyl)urea]	1060	96.2	–
CCN(C(=O)N[C@@H](CCC(F)(F)F)C(F)(F)F)C(C)c1cnnc(-c2cn3ccnc3c(OC)n2)c1 (stereo partly drawn) [Example 2-64, 1-ethyl-3-((S)-1,1,1,5,5,5-hexafluoropentan-2-yl)-1-(1-(6-(8-methoxyimidazo[1,2-a]pyrazin-6-yl)pyridazin-4-yl)ethyl)urea]	2870	81.2	–
C#CC(CCC(F)(F)F)NC(=O)N(CC)[C@H](C)c1cccc(-c2cn3ccnc3c(OC)n2)c1 (stereo partly drawn) [Example 2-65, 1-ethyl-1-((R)-1-(3-(8-methoxyimidazo[1,2-a]pyrazin-6-yl)phenyl)ethyl)-3-(6,6,6-trifluorohex-1-yn-3-yl)urea]	4	100.1	–
CCN(C(=O)NC(c1cccc(F)c1)C(F)(F)F)[C@@H](c1cccc(-c2cn3ccnc3c(OC)n2)c1)C(F)(F)F (stereo partly drawn) [Example 2-66, 1-ethyl-1-((S)-2,2,2-trifluoro-1-(3-(8-methoxyimidazo[1,2-a]pyrazin-6-yl)phenyl)ethyl)-3-(2,2,2-trifluoro-1-(3-fluorophenyl)ethyl)urea]	5.2	97.2	–
CCN(C(=O)NC1CCC(C(F)(F)F)N(C)C1)[C@@H](c1cccc(-c2cn3ccnc3c(OC)n2)c1)C(F)(F)F (stereo partly drawn) [Example 2-67, 1-ethyl-3-(1-methyl-6-(trifluoromethyl)piperidin-3-yl)-1-((S)-2,2,2-trifluoro-1-(3-(8-methoxyimidazo[1,2-a]pyrazin-6-yl)phenyl)ethyl)urea]	7.7	98.7	–
CCNC(=O)N(CC)[C@H](C)c1cccc(-c2cc(OC)c3nccn3c2)c1 [Example 2-68, (R)-1,3-diethyl-1-(1-(3-(8-methoxyimidazo[1,2-a]pyridin-6-yl)phenyl)ethyl)urea]	179	83.3	–
CCN(C(=O)N[C@@H](CCCF)C(F)(F)F)[C@@H](c1cc(-c2cn3cc(C)nc3c(OC)n2)c(OC)cn1)C(F)(F)F [Example 3-2, 1-ethyl-3-((S)-1,1,1,5-tetrafluoropentan-2-yl)-1-((S)-2,2,2-trifluoro-1-(5-methoxy-4-(8-methoxy-2-methylimidazo[1,2-a]pyrazin-6-yl)pyridin-2-yl)ethyl)urea]	3.3	102.4	–
CCN(C(=O)N[C@@H](CCC(F)F)C(F)(F)F)[C@@H](c1cc(-c2cn3cc(C)nc3c(OC)n2)c(OC)cn1)C(F)(F)F [Example 3-3, 1-ethyl-3-((S)-1,1,1,5,5-pentafluoropentan-2-yl)-1-((S)-2,2,2-trifluoro-1-(5-methoxy-4-(8-methoxy-2-methylimidazo[1,2-a]pyrazin-6-yl)pyridin-2-yl)ethyl)urea]	3.6	101.6	–
CCN(C(=O)N[C@@H](CCC(F)=C(F)F)C(F)(F)F)[C@@H](c1cc(-c2cn3cc(C)nc3c(OC)n2)c(OC)cn1)C(F)(F)F [Example 3-4, 1-ethyl-3-((S)-1,1,1,5,6,6-hexafluorohex-5-en-2-yl)-1-((S)-2,2,2-trifluoro-1-(5-methoxy-4-(8-methoxy-2-methylimidazo[1,2-a]pyrazin-6-yl)pyridin-2-yl)ethyl)urea]	27.8	100.5	–
CCN(C(=O)N[C@@H](CC1CC1)C(F)(F)F)[C@@H](c1cc(-c2cn3cc(C)nc3c(OC)n2)c(OC)cn1)C(F)(F)F [Example 3-5, 3-((S)-3-cyclopropyl-1,1,1-trifluoropropan-2-yl)-1-ethyl-1-((S)-2,2,2-trifluoro-1-(5-methoxy-4-(8-methoxy-2-methylimidazo[1,2-a]pyrazin-6-yl)pyridin-2-yl)ethyl)urea]	40.5	99.3	–
CCN(C(=O)NC(CCC1CC1)C(F)(F)F)[C@H](C)c1cccc(-c2cn3ccnc3c(OC)n2)c1 (stereo partly drawn) [Example 3-6, 3-(4-cyclopropyl-1,1,1-trifluorobutan-2-yl)-1-ethyl-1-((R)-1-(3-(8-methoxyimidazo[1,2-a]pyrazin-6-yl)phenyl)ethyl)urea]	2.6	99.7	–
C#CCCCC(NC(=O)N(CC)[C@H](C)c1cccc(-c2cn3ccnc3c(OC)n2)c1)C(F)(F)F (stereo partly drawn) [Example 3-7, 1-ethyl-1-((R)-1-(3-(8-methoxyimidazo[1,2-a]pyrazin-6-yl)phenyl)ethyl)-3-(1,1,1-trifluorohept-6-yn-2-yl)urea]	4.4	100.5	–

The remaining lines, values ahead:

EC50 [nM]	% of maximum agonist effect (relative to Orexin A) [%]	% of maximum agonist effect (relative to Orexin A) (1 µM) [%]	Structure (SMILES)
4.8	101.6	–	CCN(C(=O)N[C@@H](CCC(F)(F)F)C(F)F)[C@@H](c1cc(-c2cn3cc(C)nc3c(OC)n2)c(OC)cn1)C(F)(F)F [Example 4-1, 1-ethyl-3-((S)-1,1,5,5,5-pentafluoropentan-2-yl)-1-((S)-2,2,2-trifluoro-1-(5-methoxy-4-(8-methoxy-2-methylimidazo[1,2-a]pyrazin-6-yl)pyridin-2-yl)ethyl)urea]
5.9	99.9	–	CCN(C(=O)N[C@@H](CCC(F)F)C(F)F)[C@@H](c1cc(-c2cn3cc(C)nc3c(OC)n2)c(OC)cn1)C(F)(F)F [Example 4-2, 1-ethyl-3-((S)-1,1,5,5-tetrafluoropentan-2-yl)-1-((S)-2,2,2-trifluoro-1-(5-methoxy-4-(8-methoxy-2-methylimidazo[1,2-a]pyrazin-6-yl)pyridin-2-yl)ethyl)urea]
17.2	101.4	–	CCN(C(=O)N[C@@H](CCCF)C(F)F)[C@@H](c1cc(-c2cn3ncnc3c(OC)n2)c(OC)cn1)C(F)(F)F [Example 4-3, 1-ethyl-1-((S)-2,2,2-trifluoro-1-(5-methoxy-4-(8-methoxy-[1,2,4]triazolo[1,5-a]pyrazin-6-yl)pyridin-2-yl)ethyl)-3-((S)-1,1,5-trifluoropentan-2-yl)urea]
–	–	99.1	CCN(C(=O)N[C@@H](C=C(C)C)C(F)(F)F)[C@H](C)c1cccc(-c2cn3ccnc3c(OC)n2)c1 [Example 5-2, 1-ethyl-1-((R)-1-(3-(8-methoxyimidazo[1,2-a]pyrazin-6-yl)phenyl)ethyl)-3-((S)-1,1,1-trifluoro-4-methylpent-3-en-2-yl)urea]
37.4	100.5	–	C#CC(NC(=O)N(CC)[C@@H](c1cc(-c2cn3ccnc3c(OC)n2)c(OC)cn1)C(F)(F)F)C(F)(F)F (stereo partly drawn) [Example 5-3, 1-ethyl-1-((S)-2,2,2-trifluoro-1-(5-methoxy-4-(8-methoxyimidazo[1,2-a]pyrazin-6-yl)pyridin-2-yl)ethyl)-3-(1,1,1-trifluorobut-3-yn-2-yl)urea]
22.6	101.0	–	CC[C@H](CCC(F)F)NC(=O)N(CC)[C@@H](c1cc(-c2cn3cc(C)nc3c(OC)n2)c(OC)cn1)C(F)(F)F [Example 6-1, 3-((R)-6,6-difluorohexan-3-yl)-1-ethyl-1-((S)-2,2,2-trifluoro-1-(5-methoxy-4-(8-methoxy-2-methylimidazo[1,2-a]pyrazin-6-yl)pyridin-2-yl)ethyl)urea]
8.1	100.1	–	CC[C@H](CC(F)(F)F)NC(=O)N(CC)C(c1cc(-c2cn3ccnc3c(OC)n2)c(OC)cn1)C(F)(F)F (stereo partly drawn) [Example 6-2, 1-ethyl-1-(2,2,2-trifluoro-1-(5-methoxy-4-(8-methoxyimidazo[1,2-a]pyrazin-6-yl)pyridin-2-yl)ethyl)-3-((R)-1,1,1-trifluoropentan-3-yl)urea]
13.6	100.2	–	CCN(C(=O)NC(CC(F)(F)F)C1CC1)C(c1cc(-c2cn3ccnc3c(OC)n2)c(OC)cn1)C(F)(F)F (stereo not shown) [Example 6-3, 3-(1-cyclopropyl-3,3,3-trifluoropropyl)-1-ethyl-1-(2,2,2-trifluoro-1-(5-methoxy-4-(8-methoxyimidazo[1,2-a]pyrazin-6-yl)pyridin-2-yl)ethyl)urea]
16	100.3	–	CCN(C(=O)NC(CCCF)C1CC1)[C@@H](c1cc(-c2cn3cc(C)nc3c(OC)n2)c(OC)cn1)C(F)(F)F (stereo partly drawn) [Example 6-4, 3-(1-cyclopropyl-4-fluorobutyl)-1-ethyl-1-((S)-2,2,2-trifluoro-1-(5-methoxy-4-(8-methoxy-2-methylimidazo[1,2-a]pyrazin-6-yl)pyridin-2-yl)ethyl)urea]
18.9	100.0	–	CCC(/C=C/C(F)(F)F)NC(=O)N(CC)[C@@H](c1cc(-c2cn3cc(C)nc3c(OC)n2)c(OC)cn1)C(F)(F)F (stereo partly drawn) [Example 6-5, 1-ethyl-1-((S)-2,2,2-trifluoro-1-(5-methoxy-4-(8-methoxy-2-methylimidazo[1,2-a]pyrazin-6-yl)pyridin-2-yl)ethyl)-3-((E)-6,6,6-trifluorohex-4-en-3-yl)urea]
